# Test results: ChEMBL document CHEMBL4004798, “Phytochemical Investigations of Three Rhodocodon (Hyacinthaceae Sensu APG II) Species” (2017)
# How the values were obtained:
# [1] = Inhibition of COX2 expression in HCA-7 cells at 1 mM after 48 hrs by Western blot method relative to control; type: functional; conditions: Homo sapiens, HCA-7, 48 h
# [2] = target: T1, Prostaglandin G/H synthase 2 (Homo sapiens) (UniProt P35354); assay: Inhibition of COX2 in HCA-7 cells assessed as reduction in PGE2 release at 12 uM after 48 hrs by ELISA relative to control; type: cell-based
# T1 sequence (whole entry): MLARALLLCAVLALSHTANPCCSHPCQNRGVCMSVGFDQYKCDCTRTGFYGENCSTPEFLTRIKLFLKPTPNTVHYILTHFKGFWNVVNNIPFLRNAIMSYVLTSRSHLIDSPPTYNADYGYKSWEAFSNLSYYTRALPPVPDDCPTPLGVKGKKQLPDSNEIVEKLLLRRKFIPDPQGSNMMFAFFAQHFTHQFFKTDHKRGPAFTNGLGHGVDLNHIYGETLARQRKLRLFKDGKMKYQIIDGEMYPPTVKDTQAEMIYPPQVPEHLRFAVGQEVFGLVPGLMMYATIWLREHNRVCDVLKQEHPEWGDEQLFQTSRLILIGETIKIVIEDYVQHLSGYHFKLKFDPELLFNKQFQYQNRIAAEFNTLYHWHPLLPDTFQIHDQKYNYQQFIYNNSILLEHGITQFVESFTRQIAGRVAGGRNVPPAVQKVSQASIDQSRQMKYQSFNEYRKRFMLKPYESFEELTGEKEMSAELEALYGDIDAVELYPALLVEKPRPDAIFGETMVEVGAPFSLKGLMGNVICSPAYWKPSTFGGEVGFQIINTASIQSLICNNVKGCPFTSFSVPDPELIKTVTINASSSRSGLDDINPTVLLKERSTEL
# [3] = Inhibition of COX2 expression in HCA-7 cells at 12 uM after 48 hrs by Western blot method relative to control; type: functional; conditions: Homo sapiens, HCA-7, 48 h
inhibition [2] [%],Structure (SMILES),inhibition at 1000 µM [1] [%],inhibition at 12 µM [3] [%]
–,CC(=O)Oc1ccccc1C(=O)O [ASPIRIN],12,–
11,COc1ccc(/C=C2\COc3cc(O)cc(O)c3C2=O)cc1OC(C)=O,–,8
20,COc1ccc(/C=C2\COc3cc(O)c(O)c(O)c3C2=O)cc1O,–,10
